Experimental data reported in patent US8476197B2, “Aminopropenoates as fungicides” (priority 2009, dated 2013).
Marks after values point to notes of the source that are not given here.

Details: pH 2.3

Row | SMILES | Log P
1 | COC(=O)C(C#N)=C(Nc1ccccc1SC)c1cccnc1Cl [Compound 334] | 2.82^[c]; 2.82^[b]
2 | CCOC(=O)C(C#N)=C(NC(C)C(C)C)c1cccnc1 (stereo not shown) [Compound 1504] | 2.61
3 | CCN(C)C(=O)C(C#N)=C(NC(C)C(C)C)c1cccnc1Cl (stereo not shown) [Compound 1282] | 2.91
4 | CCOC(=O)C(C#N)=C(NC(C)C(C)C)c1cccnc1-c1ccc(C(F)(F)F)cc1 (stereo not shown) [Compound 1457] | 4.23
5 | CCOC(=O)C(C#N)=C(NC(C)C(C)C)c1cccnc1C(C)=O (stereo not shown) [Compound 980] | 3.11
6 | COC(=O)C(C#N)=C(Nc1cccc(SC)c1)c1cccnc1Cl [Compound 339] | 3.04

Same assay, conditions: pH 2.7

Row | SMILES | Log P
7 | CCNC(=O)C(C#N)=C(NC(C)c1ccccn1)c1cn(C)nc1C(F)F (racemic) [Compound 1293] | 1.86^[a]
8 | CCOC(=O)C(C#N)=C(NC1CCC1)c1ccnc(Cl)c1Cl [Compound 802] | 3.52^[a]
9 | CCOC(=O)C(C#N)=C(NC(C)C(N)=O)c1sccc1Br (stereo not shown) [Compound 652] | 1.94^[a]
10 | CCOC(=O)C(C#N)=C(NC(C)c1ccccn1)c1cccnc1C(F)(F)F (racemic) [Compound 233] | 2.88^[a]
11 | CCOC(=O)C(C#N)=C(NC(C)COCc1ccccc1Cl)c1cn(C)nc1C(F)F (racemic) [Compound 1241] | 3.83^[a]
12 | C#CC(C)NC(=C(C#N)C(=O)OCC)c1sccc1Br (stereo not shown) [Compound 1047] | 3.17^[a]
13 | CCOC(=O)C(C#N)=C(NC(C)c1ccn[nH]1)c1cccnc1Cl (stereo not shown) [Compound 1608] | 2.1^[a]
14 | COC(=O)C(C#N)=C(NC1C(C)CCCC1C)c1cccnc1Cl (stereo not shown) [Compound 1058] | 3.63^[a]
15 | CCOC(=O)C(C#N)=C(NC(C)c1nccs1)c1ccncc1F (stereo not shown) [Compound 318] | 2.41^[a]
16 | COC(=O)C(C#N)=C(NC(C)C1CC1)c1sc(C)nc1C(F)(F)F (stereo not shown) [Compound 884] | 3.27^[a]
17 | CCOC(=O)C(C#N)=C(NC1(COc2ccccc2)CC1)c1cn(C)nc1C(F)F [Compound 561] | 3.37^[a]
18 | COC(=O)C(C#N)=C(NCC#N)c1sc(C)nc1C(F)(F)F [Compound 787] | 2.01^[a]
19 | CCOC(=O)C(C#N)=C(NCCOC)c1cccnc1Cl [Compound 1183] | 2.17^[a]
20 | CCOC(=O)C(C#N)=C(NC(C)C(=O)NC)c1cccnc1C(F)F (stereo not shown) [Compound 724] | 1.62^[a]
21 | CCCC(CO)NC(=C(C#N)C(=O)OCC)c1cn(C)nc1C(F)F (stereo not shown) [Compound 1335] | 2.28^[a]
22 | CCOC(=O)C(C#N)=C(NC(C)C1CCCO1)c1sccc1Br (mixture of isomers) [Compound 186] | 3.35^[a]
23 | CCOC(=O)C(C#N)=C(NC(C)COC)c1cc(Cl)sc1Cl (stereo not shown) [Compound 1588] | 3.78^[a]
24 | CCOC(=O)C(C#N)=C(NC(C#N)CC(C)C)c1cn(C)nc1C(F)F (racemic) [Compound 1252] | 3.04^[a]
25 | CCOC(=O)C(C#N)=C(Nc1ccc(N(C)C)cc1)c1cn(C)nc1C(F)F [Compound 496] | 2.71^[a]
26 | CCOC(=O)C(C#N)=C(NC(C)CF)c1cn(C)nc1C(F)(F)F (stereo not shown) [Compound 751] | 2.72^[a]

Second part, the compound after the results:

Row | Log P | SMILES
27 | 4.78^[a] | COC(=O)C(C#N)=C(NC(C)CCCC(C)C)c1sc(C)nc1C(F)(F)F (stereo not shown) [Compound 927]
28 | 1.42^[a] | CCOC(=O)C(C#N)=C(NCC(C)N)c1sccc1C(F)(F)F (stereo not shown) [Compound 609]
29 | 3.27^[a] | COC(=O)C(C#N)=C(NC(C)CCc1ccccc1)c1cccnc1Cl (stereo not shown) [Compound 424]
30 | 4.3^[a] | CCOC(=O)C(C#N)=C(Nc1ccccc1SCC(F)(F)F)c1cc(C)oc1C [Compound 416]
31 | 2.4^[a] | CCOC(=O)C(C#N)=C(NCc1nccs1)c1cnccc1C(F)(F)F [Compound 272]
32 | 2.65^[a] | CCOC(=O)C(C#N)=C(Nc1ccccc1S(C)(=O)=O)c1cc(C)oc1C [Compound 417]
33 | 2.68^[a] | CCOC(=O)C(C#N)=C(Nc1cccc2cn(C)nc12)c1cccnc1Cl [Compound 1537]
34 | 4.9^[a] | CCOC(=O)C(C#N)=C(NC(c1cc2ccccc2s1)C(F)(F)F)c1sccc1Br (racemic) [Compound 129]
35 | 4.12^[a] | CCOC(=O)C(C#N)=C(NC(C)C(C)C)c1sccc1Br (stereo not shown) [Compound 941]
36 | 3.92^[a] | CCOC(=O)C(C#N)=C(Nc1ccc(Cl)cc1)c1sc(C)nc1C(F)(F)F [Compound 512]
37 | 2.92^[a] | CCOC(=O)C(C#N)=C(NC(C)c1nccs1)c1ccnc(CC)c1Cl (stereo not shown) [Compound 1383]
38 | 3.46^[a] | CCOC(=O)C(C#N)=C(NC(C)c1nccs1)c1ccnc(C(F)(F)F)c1Cl (stereo not shown) [Compound 1626]
39 | 3.89^[a] | CCOC(=O)C(C#N)=C(Nc1cccc(Cl)c1)c1sc(C)nc1C(F)(F)F [Compound 513]
40 | 1.9^[a] | CCOC(=O)C(C#N)=C(NC(C)C(N)=O)c1ccsc1Br (stereo not shown) [Compound 628]
41 | 1.96^[a] | CCOC(=O)C(C#N)=C(NCc1ccccn1)c1conc1C [Compound 81]
42 | 4.26^[a] | CCOC(=O)C(C#N)=C(NC(C)C(C)C)c1nc(SC)ncc1Br (stereo not shown) [Compound 972]
43 | 3.78^[a] | CCOC(=O)C(C#N)=C(Nc1ccc(OC(F)F)cc1)c1sccc1C(F)(F)F [Compound 461]
44 | 4.24^[a] | CCOC(=O)C(C#N)=C(NC(C)(C)C#Cc1ccc(C#N)cc1)c1sccc1C(F)(F)F [Compound 1091]
45 | 3.85^[a] | CCOC(=O)C(C#N)=C(NC(C)Cc1cc2ccccc2[nH]1)c1sc(C)nc1C(F)(F)F (racemic) [Compound 145]
46 | 4.56^[a] | CCOC(=O)C(C#N)=C(NC(C)CCc1ccccc1)c1ccsc1Br (racemic) [Compound 538]
47 | 4.7^[a] | C=CCCCC(C=C)NC(=C(C#N)C(=O)OCC)c1sccc1C(F)(F)F (racemic) [Compound 1014]
48 | 3.44^[a] | CCOC(=O)C(C#N)=C(Nc1ccc(OC)cc1)c1sc(C)nc1C(F)(F)F [Compound 492]
49 | 3.8^[a] | CCOC(=O)C(C#N)=C(NC(C)Cc1c[nH]c2ccccc12)c1ccsc1I (racemic) [Compound 164]
50 | 4.09^[a] | CCOC(=O)C(C#N)=C(NC(C)c1ccccc1)c1sccc1Br (mixture of isomers) [Compound 448]
51 | 3.71^[a] | CCOC(=O)C(C#N)=C(NC(C)(C)c1ccc(Cl)cc1)c1cn(C)nc1C(F)F [Compound 1215]
52 | 4.7^[a] | CCOC(=O)C(C#N)=C(NC(C)COc1c(C)cccc1C)c1sc(C)nc1C(F)(F)F (racemic) [Compound 677]
53 | 3.87^[a] | CCOC(=O)C(C#N)=C(Nc1ccc(SC)cc1)c1sc(C)nc1C(F)(F)F [Compound 480]
54 | 3.46^[a] | CCOC(=O)C(C#N)=C(NC(C)c1ncc(C)s1)c1sc(C)nc1C(F)(F)F (stereo not shown) [Compound 196]
55 | 3.39^[a] | CCOCC(NC(=C(C#N)C(=O)OCC)c1cn(C)nc1C(F)F)C(C)C (stereo not shown) [Compound 1350]

Same assay, conditions: pH 7.5

Row | SMILES | Log P
56 | COC(=O)C(C#N)=C(Nc1ccccc1SC)c1cccnc1Cl [Compound 334] | 2.82^[c]; 2.82^[b]
57 | CCOC(=O)C(C#N)=C(NC(C)C(C)C)c1cccnc1 (stereo not shown) [Compound 1504] | 2.67
58 | CCOC(=O)C(C#N)=C(NC(C)C(C)C)c1cccnc1C(C)=O (stereo not shown) [Compound 980] | 3.08
59 | CCOC(=O)C(C#N)=C(NC(C)CSC)c1cccnc1Cl (stereo not shown) [Compound 593] | 2.71

Now from value to compound:

Row | Log P | SMILES
60 | 2.9 | CCN(C)C(=O)C(C#N)=C(NC(C)C(C)C)c1cccnc1Cl (stereo not shown) [Compound 1282]
61 | 3.69 | CC(C)OC(=O)C(C#N)=C(NC(C)C(C)C)c1cccnc1Cl (stereo not shown) [Compound 946]
62 | 4.25 | CCOC(=O)C(C#N)=C(NC(C)C(C)C)c1cccnc1-c1ccc(C(F)(F)F)cc1 (stereo not shown) [Compound 1457]
63 | 3.63 | CC(C)OC(=O)C(C#N)=C(NC(C)c1nc2ccccc2s1)c1cccnc1Cl (stereo not shown) [Compound 29]
64 | 2.83 | COC(=O)C(C#N)=C(Nc1cccc(SC)c1)c1cccnc1Cl [Compound 339]
